Data from patent US20220117920A1, “N-Aryl Benzenesulfonamides as Protonophores for the Treatment of Cancers, Metabolic Diseases and Traumatic Brain Injury” (University of Kentucky Research Foundation, priority 2019, published 2022).

How the values were obtained:
AMPK = test: Western blot of AMPK (T172) and ACC (S79) phosphorylation in CRC cells; assay type: cell-based, human; conditions: for AMPK activation: concentration not given; for ACC (S79 phosphorylation) / AMPK activity (T172 phosphorylation): 3 μM
Method: (§1) Biochemistry. Western blotting: Cells were lysed in the appropriate volume of lysis buffer: 50 mM HEPES, 100 mM NaCl, 2 mM EDTA, 1% (v/v) glycerol, 50 mM NaF, 1 mM Na3VO4, 1% (v/v) Triton X-100, with protease inhibitors. The following antibodies were used: AMPK (Cell Signaling, 2532, Cell Signaling Technologies, Danver, Mass., USA), pAMPK (Cell Signaling, 2535), ACC (Cell Signaling, 3676), pACC (Cell Signaling, 11818), Actin (Sigma, A1978). Antibodies for Axin 2, c-Myc and Cyclin D1 have been described previously. ATP analysis: Cells growing in 12-well plates were treated with DMSO or inhibitors in DMSO solution and lysed by adding 1 mL boiling doubly distilled water. Supernatants were analyzed by luminescence using ATP Determination Kit (Invitrogen, A22066; Thermo Fisher Scientific, Waltham, Mass., USA).

LS174T cells = test: ATP analysis (luminescence) in LS174T cells; assay type: cell-based, human; conditions: 10 mM
Method: as §1

Wnt signaling [1] = test: Wnt reporter assay, stable HEK293T cell line containing TOPFlash reporter, LiCl-activated; assay type: cell-based, human
Excerpt: (§2) To identify novel Wnt regulators by high throughput screening, a stable HEK293T cell line containing the TOPFlash reporter was established. To identify Wnt inhibitors that targeted molecular events downstream of β-catenin, we treated these cells with lithium chloride to inhibit GSK3 and to stabilize β-catenin. […] We also validated the results by transient transfection of Super 8× TOPFlash or 8× FOPFlash into HEK293T cells. […] Since the results from the stable and transient transfection are compatible, we used stable cell lines for all of the other experiments.
(§3) Reporter assay. Wnt reporter assay and cell staining assay have been described previously. We subcloned Super 8×TOPFlash (provided by Professor Randall Moon, University of Washington) into the pGL4.83 [hRlucP/Puro] Vector and transfected it into HEK293T cells. A stable HEK293T cell line containing the TOPFlash reporter was established using puromycin selection. To screen Wnt inhibitors that block the downstream signaling transduction pathway of β-catenin, we treated the reporter cells with 25 mM LiCl to stabilize β-catenin and activate Wnt signaling. The potential Wnt inhibitors identified from screening were validated by transfecting TOPFlash or FOPFlash plus control renilla reporters into HEK293T cells, and then treating the cells with DMSO or testing compounds in DMSO solution. The Wnt signaling was activated by LiCl or Wnt3A treatment.

DLD-1 cells = test: Seahorse uncoupling assay (OCR) in DLD-1 cells; assay type: cell-based, human; conditions: for oxidative phosphorylation: data not shown
[2] = tested on: purified mitochondria from mouse liver; test: Uncoupling assay (OCR) using purified mitochondria from mouse livers; assay type: biochemical
Method: All the steps were carried out at 4° C. or on ice. After mice were euthanized with CO2 followed by rapid decapitation, whole liver was quickly dissected out on a cold block and homogenized using a Teflon-glass dounce homogenizer containing isolation buffer (215 mM mannitol, 75 mM sucrose, 0.1% BSA, 20 mM HEPES, 1 mM EGTA, adjusted to pH 7.2 with KOH). The homogenate was transferred to a 2 mL-microcentrifuge tube and spun at 1,300×g for 3 min. The supernatant was transferred to a fresh 2 mL-microcentrifuge tube and spun at 13,000×g for 10 min. The supernatant was discarded, and the crude mitochondrial pellet was resuspended in a 1.5 mL-microcentrifuge tubes and pelleted again at 10,000×g for 10 min. The supernatant was discarded, and the mitochondrial pellets were resuspended in isolation buffer to obtain an approximate concentration ≥10 mg/mL of mitochondria. The absolute protein concentration was determined using a bicinchoninic acid (BCA) protein assay kit (Pierce, Cat #23,227) by recording absorbance at 560 nm on a Biotek Synergy HT plate reader (Winooski, Vt., USA).
Mitochondrial Bioenergetics Measurements. Mitochondrial bioenergetic measurements were carried out using a Seahorse XFe96 Extracellular Flux Analyzer (Agilent Technologies, Santa Clara, Calif., USA) to measure oxygen consumption rate (OCR) during various states of respiration. The OCR were measured in the presence of different substrates, inhibitors and uncouplers of the electron transport chain using previous methods with slight modifications. The stocks used for the assays were 500 mM pyruvate, 250 mM malate, and 30 mM adenosine diphosphate (ADP), and 1 M succinate (pH for all was adjusted to 7.2). […] Stock solutions of FH535, Y3, FH535-M, and Y3-M were prepared at 5 mM in 100% DMSO. As per the instructions from XFe96 Extracellular Flux kit, the sensor cartridge was hydrated with water and kept at 37° C. overnight before the experiment. One hour before the assay was conducted, water was removed from assay plates and XF calibrant was added before re-incubation. The injection ports A to D of the sensor cartridge were loaded with 25 μL of different combinations of the above substrates/inhibitors/uncouplers as follows. Before loading, the stocks were diluted appropriately in the respiration buffer (RB) (125 mM KCl, 0.1% BSA, 20 mM HEPES, 2 mM MgCl2, and 2.5 mM KH2PO4; pH 7.2) to get the final concentrations in the respiration chamber of 5 μM pyruvate, 2.5 μM malate, 10 μM of succinate and 1 μM ADP (via Port A), 1 μM oligomycin A (via Port B), 4 μM FCCP or 5 μM/1 μM FH535 or 5 μM/1 μM Y3 or 5 μM/1 μM FH535-M or 5 μM/1 μM Y3-M (via Port C) and 0.1 μM antimycin A (via Port D) starting with the initial volume of 175 μL RB in the chamber and diluting it to 9×, 10×, 11× and 12× with every injection through ports A to D, respectively. Once loaded, the sensor cartridge was placed into the Seahorse XFe96 Flux Analyzer for automated calibration. Seahorse Standard XFe96 assay plates were used for loading mitochondria. Initially total mitochondria were diluted to 6 μg/30 μL in RB and 30 μL was loaded in each well resulting in 6 μg mitochondria/well. The assay plates were centrifuged at 3,000 rpm for 4 min at 4° C. to adhere liver mitochondria at the bottom of the wells. After centrifugation, 145 μL RB (pre-incubated to 37° C.) was added without disturbing the mitochondrial layer to obtain a final volume of 175 μL per well. […]

[3] = tested on: mitochondrial ATP production; test: Agilent Seahorse XF Real-Time ATP Rate Assay; assay type: cell-based, human
Method: Seahorse assay. Approximately 3×10^4 cells were seeded in XF96 Cell Culture microplate (80 μL of 3.75×10^5 cells/mL) for all experiments. On the next day, cell culture media were replaced with either Seahorse XF modified media with 25 mM glucose and 1 mM pyruvate. After media exchange, cells were treated with 1 μM of oligomycin A, 1.0 μM FCCP and mixture of 1.0 μM of rotenone and 1.0 μM of antimycin A in standard mitochondrial stress test conditions. To determine the uncoupler effects, FCCP was replaced with an equal volume of DMSO, or a compound to be tested in DMSO solution. ATP production rate was analyzed using Agilent Seahorse XF Real-Time ATP Rate Assay.

Wnt target genes = test: Western blot of Wnt signaling components and downstream targets in CRC cell lines; assay type: cell-based, human; conditions: three CRC cell lines
Method: as §1

[4] = tested on: LS174T and DLD-1 CRC cells; test: Cell proliferation assay in colon cancer cells; assay type: cell-based, human
Method: Cell culture. LS174T colon cancer cells were cultured in EMEM (ATCC, 30-2003) containing 10% (v/v) Fetal Bovine Serum (Sigma F0926, Sigma Aldrich Corp., St. Louis, Mo., USA). The DLD-1, SW480 and SW620 colon cancer cells were cultured in DMEM (Sigma D6429) containing 10% (v/v) Fetal Bovine Serum (Sigma, F0926). For proliferation assays, cells (3.5×10^4 cells per well) were split into 12-well plates. After 24 h, 1 μL of each compound in DMSO solution were added to each well. DMSO was used as a control. Each experiment was done in triplicate. Cell viability and number were analyzed using the Vi-Cell XR Cell Viability Analyzer (Beckman Coulter, Indianapolis, Ind., USA).

Wnt signaling [5] = test: Transient transfection of Super 8× TOPFlash or 8× FOPFlash into HEK293T cells; assay type: cell-based, human
Excerpt: as §2
as §3, with “The Wnt signaling was activated by LiCl or Wnt3A treatment.” left out

[6] = tested on: mitochondrial membrane potential; test: Mitochondria membrane potential assay (TMRM staining); assay type: cell-based, human; conditions: FTU-11 at 3 μM
Method: Mitochondria Membrane potential assay: DLD-1 and LS174T cells were plated onto 24-well plates and maintained in DMEM (DLD-1) and RPMI1640 (LS174T) with 10% (v/v) (DLD-1) and 5% (v/v) (LS174T) serum for one day. The cells were treated with DMSO or a testing compound in DMSO solution for 2 h, followed by staining with 100 nM tetramethylrhodamine methyl ester perchlorate (TMRM) (Cayman Chemical Company, MI, USA) for 15 min. Cells were rinsed once with PBS and then observed under fluorescence microscopy at 568 nm.

O=CC[C@@H](O)[C@H](O)[C@H](O)CO [2-DG, 2-deoxy-D-glucose]
AMPK activation (AMPK): activated AMPK | ATP levels (LS174T cells): reduced ATP levels | inhibition of Wnt signaling (Wnt signaling [1]; concentration not given): inhibited Wnt signaling

N#Cc1c(O)c2c(-c3ccc(-c4ccccc4O)cc3)csc2[nH]c1=O [A769662, 4-hydroxy-3-(2′-hydroxy-[1,1′-biphenyl]-4-yl)-6-oxo-6,7-dihydrothieno[2,3-b]pyridine-5-carbonitrile, reference compound]
AMPK activity (ACC S79 phosphorylation) (AMPK; without affecting AMPK phosphorylation): Increased AMPK activity | inhibition of Wnt signaling (Wnt signaling [1]; 10 μM): did not inhibit Wnt signaling

c1cc(-c2cnn3cc(-c4ccc(OCCN5CCOCC5)cc4)cnc23)ccn1 [Compound C, 4-(2-(4-(3-(pyridin-4-yl)pyrazolo[1,5-a]pyrimidin-6-yl)phenoxy)ethyl)morpholine, reference compound]
urea-induced AMPK phosphorylation and ACC phosphorylation (AMPK; 5 μM): decreased | rescue of Wnt signaling inhibited by FTU-11 (3 μM) and FDN-4E (3 μM) (Wnt signaling [1]; 5 μM): no effect

N#CC(C#N)=NNc1ccc(OC(F)(F)F)cc1 [FCCP, N-(4-(trifluoromethoxy)phenyl)carbonohydrazonoyl dicyanide, reference compound]
AMPK activation (AMPK): strongly activated AMPK | uncoupling: OCR inhibited by oligomycin (DLD-1 cells; 1 μM, control): increased OCR inhibited by oligomycin | uncoupling: OCR blocked by oligomycin ([2]; control, 1 μM): rescued | inhibition of Wnt signaling (Wnt signaling [1]; concentration not given): inhibited Wnt signaling | rate of ATP production in mitochondria ([3]; 1 μM, control): decreased the rates of ATP production in mitochondria

O=C(Nc1ccc(C(F)(F)F)cc1)Nc1cc(F)c(F)c(F)c1 [FDN-4E, 1-(4-(trifluoromethyl)phenyl)-3-(3,4,5-trifluorophenyl)urea]
ACC (S79 phosphorylation) (AMPK): inhibited ACC | AMPK activity (T172 phosphorylation) (AMPK): increased AMPK activity | Wnt target genes (Wnt target genes): inhibited Wnt target genes | proliferation of colon cancer cells [4]: inhibited the proliferation of colon cancer cells at sub-micromolar concentrations | inhibition of Wnt signaling (Wnt signaling [1]; concentration not given): inhibited Wnt signaling | TOPFlash and FOPFlash activity (Wnt signaling [5]): inhibited TOPFlash but not FOPFlash activity

Cc1cc([N+](=O)[O-])ccc1N(C)S(=O)(=O)c1cc(Cl)ccc1Cl [FH535-M, 2,5-dichloro-N-methyl-N-(2-methyl-4-nitrophenyl)benzenesulfonamide]
AMPK activity (T172 phosphorylation) (AMPK): lost activities | uncoupling: OCR inhibited by oligomycin (DLD-1 cells; testing compound 3 μM): no longer functioned as a mitochondrial uncoupler | uncoupling: OCR blocked by oligomycin ([2]; 5 μM/1 μM): inactive | inhibition of Wnt signaling (Wnt signaling [1]; 3 μM): lost activities

O=C(Nc1nnc(C(F)(F)F)s1)NC(CC(F)(F)F)(C(F)(F)F)C(F)(F)F [FTU-11, 1-(1,1,1,4,4,4-hexafluoro-2-(trifluoromethyl)butan-2-yl)-3-(5-(trifluoromethyl)-1,3,4-thiadiazol-2-yl)urea]
ACC (S79 phosphorylation) (AMPK): inhibited ACC | AMPK activity (T172 phosphorylation) (AMPK): increased AMPK activity | AMPK activation (AMPK): equal in potency to FDN-4E | Wnt target genes (Wnt target genes): inhibited Wnt target genes | uncoupling: OCR inhibited by oligomycin (DLD-1 cells; testing compound 3 μM): increased OCR inhibited by oligomycin | proliferation of colon cancer cells [4]: inhibited the proliferation of colon cancer cells at sub-micromolar concentrations | mitochondrial membrane potential [6]: reduced mitochondrial membrane potential | mitochondrial membrane potential ([6]; listed as FTC-11): significantly reduced the membrane potential of mitochondria | concentration at which Wnt signaling was inhibited (Wnt signaling [1]; 96-well assay using stable cell line): 0.5 mM | rate of ATP production in mitochondria ([3]; 3 μM): decreased the rates of ATP production in mitochondria | TOPFlash and FOPFlash activity (Wnt signaling [5]): inhibited TOPFlash but not FOPFlash activity

O=C1[C@H](Cc2ccc(O)cc2)N2C(=O)CCN(C(=O)NCc3ccccc3)[C@H]2CN1Cc1cccc2ccccc12 [ICG-001, (6S,9aS)—N-benzyl-6-(4-hydroxybenzyl)-8-(naphthalen-1-ylmethyl)-4,7-dioxohexahydro-2H-pyrazino[1,2-c]pyrimidine-1(6H)-carboxamide, reference compound]
AMPK activation (AMPK): no effect on AMPK | inhibition of Wnt signaling (Wnt signaling [1]; concentration not given): only inhibited Wnt signaling

CN(c1ccc([N+](=O)[O-])c2ccccc12)S(=O)(=O)c1cc(Cl)ccc1Cl [Y3-M, 2,5-dichloro-N-methyl-N-(4-nitronaphthalen-1-yl)benzenesulfonamide]
AMPK activity (T172 phosphorylation) (AMPK): lost activities | uncoupling: OCR inhibited by oligomycin (DLD-1 cells; testing compound 3 μM): failed as a mitochondrial uncoupler | uncoupling: OCR blocked by oligomycin ([2]; 5 μM/1 μM): inactive | inhibition of Wnt signaling (Wnt signaling [1]; 3 μM): lost activities

CC[C@H]1/C=C/C=C/C[C@@H](C)[C@H](O)[C@@](C)(O)C(=O)[C@@H](C)[C@H](O)[C@@H](C)C(=O)[C@@H](C)[C@H](O)[C@@H](C)/C=C/C(=O)O[C@@H]2[C@H](C)[C@H](CC1)O[C@]1(CC[C@H](C)[C@H](C[C@@H](C)O)O1)[C@H]2C [oligomycin, reference compound]
AMPK activation (AMPK): activated AMPK | oxidative phosphorylation (DLD-1 cells): inhibited oxidative phosphorylation | inhibition of Wnt signaling (Wnt signaling [1]; concentration not given): inhibited Wnt signaling

C=C(C)[C@H]1Cc2c(ccc3c2O[C@@H]2COc4cc(OC)c(OC)cc4[C@@H]2C3=O)O1 [rotenone, reference compound]
AMPK activation (AMPK): activated AMPK | oxidative phosphorylation (DLD-1 cells): inhibited oxidative phosphorylation | inhibition of Wnt signaling (Wnt signaling [1]; concentration not given): inhibited Wnt signaling

antimycin [reference compound]
AMPK activation (AMPK): activated AMPK | oxidative phosphorylation (DLD-1 cells): inhibited oxidative phosphorylation | inhibition of Wnt signaling (Wnt signaling [1]; concentration not given): inhibited Wnt signaling
